From ChEMBL document CHEMBL6114983 (Bioorg Med Chem, 2025)
pIC50: −log10 of the molar value.

Molecular target: Glutaminyl-peptide cyclotransferase (Homo sapiens, UniProt Q16769)
Sequence (Q16769 whole entry): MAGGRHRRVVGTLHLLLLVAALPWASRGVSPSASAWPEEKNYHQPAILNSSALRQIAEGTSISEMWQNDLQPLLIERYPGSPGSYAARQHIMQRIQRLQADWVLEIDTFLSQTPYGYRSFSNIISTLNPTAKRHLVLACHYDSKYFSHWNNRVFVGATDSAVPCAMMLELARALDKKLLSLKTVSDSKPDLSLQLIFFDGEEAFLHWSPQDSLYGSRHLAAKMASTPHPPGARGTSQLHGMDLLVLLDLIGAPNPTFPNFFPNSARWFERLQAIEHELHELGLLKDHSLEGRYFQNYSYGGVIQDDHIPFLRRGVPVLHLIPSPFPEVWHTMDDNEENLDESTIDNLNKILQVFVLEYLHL

COc1ccc(N(C(=S)NCCCn2cncc2C)C2CCN(C)CC2)cc1OC
pIC50: 8.47
